Results as given in ChEMBL document CHEMBL6134864, “Discovery of FLT3-ITD Inhibitor Clifutinib: A Novel Biphenylacetylene Urea Derivative in Clinical Trials for the Treatment of Relapsed/Refractory FLT3-ITD+ Acute Myeloid Leukemia” (J Med Chem, 2025).
The source made the active and inactive calls. The rule behind the calls is not given here.

Columns and labels:
[1] = Clearance in rat plasma at 5 mg/kg, po measured up to 24 hrs by LC-MS/MS analysis; assay type: ADME, organism-based
[2] = Cmax in mouse plasma at 2 mg/kg, iv measured up to 24 hrs by LC-MS/MS analysis; assay type: ADME, organism-based
[3] = AUC last in mouse plasma at 2 mg/kg, iv measured up to 24 hrs by LC-MS/MS analysis; assay type: ADME, organism-based
[4] = Half life in mouse plasma at 2 mg/kg, iv measured up to 24 hrs by LC-MS/MS analysis; assay type: ADME, organism-based
[5] = Clearance in mouse plasma at 2 mg/kg, iv measured up to 24 hrs by LC-MS/MS analysis; assay type: ADME, organism-based
[6] = AUC last in mouse plasma at 10 mg/kg, po measured up to 24 hrs by LC-MS/MS analysis; assay type: ADME, organism-based
[7] = Cmax in dog plasma at 1 mg/kg, iv measured up to 24 hrs by LC-MS/MS analysis; assay type: ADME, organism-based, Canis lupus familiaris
[8] = AUC last in dog plasma at 1 mg/kg, iv measured up to 24 hrs by LC-MS/MS analysis; assay type: ADME, organism-based, Canis lupus familiaris
[9] = Clearance in dog plasma at 1 mg/kg, iv measured up to 24 hrs by LC-MS/MS analysis; assay type: ADME, organism-based, Canis lupus familiaris
[10] = Volume of distribution at steady state in dog plasma at 1 mg/kg, iv measured up to 24 hrs by LC-MS/MS analysis; assay type: ADME, organism-based, Canis lupus familiaris; conditions: read-out: Vdss
[11] = Cmax in monkey plasma at 1 mg/kg, iv measured up to 24 hrs by LC-MS/MS analysis; assay type: ADME, organism-based, Macaca mulatta; conditions: rhesus monkey
[12] = AUC last in monkey plasma at 1 mg/kg, iv measured up to 24 hrs by LC-MS/MS analysis; assay type: ADME, organism-based, Macaca mulatta; conditions: rhesus monkey, in vivo
[13] = Half life in monkey plasma at 1 mg/kg, iv measured up to 24 hrs by LC-MS/MS analysis; assay type: ADME, organism-based, Macaca mulatta; conditions: rhesus monkey
[14] = Cmax in monkey plasma at 5 mg/kg, po measured up to 24 hrs by LC-MS/MS analysis; assay type: ADME, organism-based, Macaca mulatta; conditions: rhesus monkey
BaF3 [15] = assay: Antiproliferative activity against mouse BaF3 cells harbouring FLT3-ITD-D835I mutant assessed as inhibition of cell growth incubated for 72 hrs by celltiter-glo luminescent cell viability assay; assay type: functional, cell-based; conditions: BaF3, 72 h
BaF3 [16] = assay: Antiproliferative activity against mouse BaF3 cells harbouring FLT3-ITD-F691L mutant assessed as inhibition of cell growth incubated for 72 hrs by celltiter-glo luminescent cell viability assay; assay type: functional, cell-based; conditions: BaF3, 72 h
[17] = tested on: Receptor-type tyrosine-protein kinase FLT3 (Homo sapiens), P36888 [UNDEFINED MUTATION]; assay: Inhibition of FLT3 in human MV4-11 cells harbouring FLT3-ITD mutant assessed as inhibition of FLT3 phosphorylation level measured after 2 hrs by Western blot analysis; assay type: cell-based; conditions: dose 1-1000 nM
[18] = tested on: Receptor-type tyrosine-protein kinase FLT3 (Homo sapiens), P36888 [UNDEFINED MUTATION]; assay: Inhibition of FLT3 in human MV4-11 cells harbouring FLT3-ITD mutant assessed as inhibition of ERK phosphorylation level measured after 2 hrs by Western blot analysis; assay type: cell-based; conditions: dose 1-1000 nM
[19] = tested on: Receptor-type tyrosine-protein kinase FLT3 (Homo sapiens), P36888 [UNDEFINED MUTATION]; assay: Inhibition of FLT3 in human MV4-11 cells harbouring FLT3-ITD mutant assessed as inhibition of AKT phosphorylation level measured after 2 hrs by Western blot analysis; assay type: cell-based; conditions: dose 1-1000 nM
[20] = tested on: Receptor-type tyrosine-protein kinase FLT3 (Homo sapiens), P36888 [UNDEFINED MUTATION]; assay: Inhibition of FLT3 in human MV4-11 cells harbouring FLT3-ITD mutant assessed as effect on AKT protein level at 1 to 1000 nM measured after 2 hrs by Western blot analysis; assay type: cell-based; conditions: dose 1-1000 nM
[21] = molecular target: Proto-oncogene tyrosine-protein kinase receptor Ret (Homo sapiens, UniProt P07949, Y791F); assay: Inhibition of human RET Y791F mutant by biochemical kinase binding assay
[22] = molecular target: Mast/stem cell growth factor receptor Kit (Homo sapiens, UniProt P10721, T670I/V559D); assay: Inhibition of human KIT V559D/T670I mutant by biochemical kinase binding assay
Cytochrome P450 2C9 = Cytochrome P450 2C9 (Homo sapiens, UniProt P11712); assay: Inhibition of CYP2C9 in human liver microsomes by UPLC-MS/MS analysis; assay type: ADME, Microsome
[23] = Antitumor activity against human […] cells harbouring FLT3-ITD xenografted in NOD/SCID mouse model assessed as tumor regression rate at 20 mg/kg/day, po measured for 8 days by caliper analysis relative to control; assay type: functional, MV4-11; conditions: time 8 day
[24] = Antitumor activity against human […] cells harbouring FLT3-ITD xenografted in NOD/SCID mouse model assessed as tumor regression rate at 1.5 to 4.5 mg/kg/day, po administered for 21 days and measured for 31 days post dose by caliper analysis relative to control; assay type: functional, MV4-11; conditions: dose lower […], dose upper 4.5 mg/kg/day, time 52 day
[25] = Tmax in NOD/SCID mouse plasma xenografted with human MV4-11 cells at […], po measured up to 24 hrs by LC-MS/MS analysis; assay type: ADME, organism-based; conditions: dose 1.5 mg/kg
[26] = Tmax in NOD/SCID mouse plasma xenografted with human MV4-11 cells at 4.5 mg/kg, po measured up to 24 hrs by LC-MS/MS analysis; assay type: ADME, organism-based
[27] = Tmax in NOD/SCID mouse tumor xenografted with human MV4-11 cells at 0.5 mg/kg, po measured up to 24 hrs by LC-MS/MS analysis; assay type: ADME, organism-based, Neoplasm
[28] = Tmax in NOD/SCID mouse tumor xenografted with human MV4-11 cells at 4.5 mg/kg, po measured up to 24 hrs by LC-MS/MS analysis; assay type: ADME, organism-based, Neoplasm
[29] = Cmax in NOD/SCID mouse plasma xenografted with human MV4-11 cells at 4.5 mg/kg, po measured up to 24 hrs by LC-MS/MS analysis; assay type: ADME, organism-based
[30] = Cmax in NOD/SCID mouse tumor xenografted with human MV4-11 cells at […], po measured up to 24 hrs by LC-MS/MS analysis; assay type: ADME, organism-based, Neoplasm; conditions: dose 1.5 mg/kg
[31] = AUC (0 to t) in NOD/SCID mouse tumor xenografted with human MV4-11 cells at 4.5 mg/kg, po measured up to 24 hrs by LC-MS/MS analysis; assay type: ADME, organism-based, Neoplasm
K562 = assay: cells; conditions: Homo sapiens, K562, 72 h
Description: Antiproliferative activity against human K562 cells assessed as inhibition of cell growth incubated for 72 hrs by celltiter-glo luminescent cell viability assay

NCI-H226 = assay: cells; conditions: Homo sapiens, NCI-H226, 72 h
Description: Antiproliferative activity against human NCI-H226 cells assessed as inhibition of cell growth incubated for 72 hrs by celltiter-glo luminescent cell viability assay

PC-3 = assay: cells; conditions: Homo sapiens, PC-3, 72 h
Description: Antiproliferative activity against human PC-3 cells assessed as inhibition of cell growth incubated for 72 hrs by celltiter-glo luminescent cell viability assay

SK-OV-3 = assay: cells; conditions: Homo sapiens, SK-OV-3, 72 h
Description: Antiproliferative activity against human SK-OV-3 cells assessed as inhibition of cell growth incubated for 72 hrs by celltiter-glo luminescent cell viability assay

COLO 205 = assay: cells; conditions: Homo sapiens, COLO 205, 72 h
Description: Antiproliferative activity against human COLO 205 cells assessed as inhibition of cell growth incubated for 72 hrs by celltiter-glo luminescent cell viability assay

HCT-116 = assay: cells; conditions: Homo sapiens, HCT-116, 72 h
Description: Antiproliferative activity against human HCT-116 cells assessed as inhibition of cell growth incubated for 72 hrs by celltiter-glo luminescent cell viability assay

CAKI-1 = assay: cells; conditions: Homo sapiens, CAKI-1, 72 h
Description: Antiproliferative activity against human CAKI-1 cells assessed as inhibition of cell growth incubated for 72 hrs by celltiter-glo luminescent cell viability assay

786-0 = assay: cells; conditions: Homo sapiens, 786-0, 72 h
Description: Antiproliferative activity against human 786-0 cells assessed as inhibition of cell growth incubated for 72 hrs by celltiter-glo luminescent cell viability assay

BaF3 [32] = assay: cells; conditions: Mus musculus, BaF3, 72 h

Chain of Receptor-type tyrosine-protein kinase FLT3 (Homo sapiens), P36888 [UNDEFINED MUTATION] (P36888 whole entry, looked up, stated change not applied): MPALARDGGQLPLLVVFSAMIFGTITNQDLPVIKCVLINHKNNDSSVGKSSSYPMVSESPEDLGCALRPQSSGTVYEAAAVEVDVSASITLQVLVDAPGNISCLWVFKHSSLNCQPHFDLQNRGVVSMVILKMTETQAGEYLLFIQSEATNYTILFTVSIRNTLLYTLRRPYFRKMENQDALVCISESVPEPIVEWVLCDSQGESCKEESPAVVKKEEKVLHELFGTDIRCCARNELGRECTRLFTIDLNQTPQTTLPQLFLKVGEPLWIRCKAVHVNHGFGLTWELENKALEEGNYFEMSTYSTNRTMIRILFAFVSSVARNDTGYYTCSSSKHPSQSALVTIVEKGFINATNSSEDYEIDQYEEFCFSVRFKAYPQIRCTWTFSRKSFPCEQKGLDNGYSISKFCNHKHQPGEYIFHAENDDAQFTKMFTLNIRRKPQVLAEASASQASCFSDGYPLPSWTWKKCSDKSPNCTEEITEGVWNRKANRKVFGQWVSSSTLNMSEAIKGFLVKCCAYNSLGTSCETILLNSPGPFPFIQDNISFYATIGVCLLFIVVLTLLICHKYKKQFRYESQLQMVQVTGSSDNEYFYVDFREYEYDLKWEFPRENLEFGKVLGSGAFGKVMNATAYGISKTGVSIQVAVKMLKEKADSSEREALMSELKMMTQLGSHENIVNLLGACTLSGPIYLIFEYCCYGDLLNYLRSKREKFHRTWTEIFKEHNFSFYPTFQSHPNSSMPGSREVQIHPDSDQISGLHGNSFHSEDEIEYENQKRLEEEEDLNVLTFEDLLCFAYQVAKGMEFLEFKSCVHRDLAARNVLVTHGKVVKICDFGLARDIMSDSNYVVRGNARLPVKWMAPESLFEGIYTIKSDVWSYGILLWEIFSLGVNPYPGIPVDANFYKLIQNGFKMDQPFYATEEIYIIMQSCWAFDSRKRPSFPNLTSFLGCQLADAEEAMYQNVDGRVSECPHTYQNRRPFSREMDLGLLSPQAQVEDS
Chain of Mast/stem cell growth factor receptor Kit (P10721 26-976 V559D/T670I limits assumed): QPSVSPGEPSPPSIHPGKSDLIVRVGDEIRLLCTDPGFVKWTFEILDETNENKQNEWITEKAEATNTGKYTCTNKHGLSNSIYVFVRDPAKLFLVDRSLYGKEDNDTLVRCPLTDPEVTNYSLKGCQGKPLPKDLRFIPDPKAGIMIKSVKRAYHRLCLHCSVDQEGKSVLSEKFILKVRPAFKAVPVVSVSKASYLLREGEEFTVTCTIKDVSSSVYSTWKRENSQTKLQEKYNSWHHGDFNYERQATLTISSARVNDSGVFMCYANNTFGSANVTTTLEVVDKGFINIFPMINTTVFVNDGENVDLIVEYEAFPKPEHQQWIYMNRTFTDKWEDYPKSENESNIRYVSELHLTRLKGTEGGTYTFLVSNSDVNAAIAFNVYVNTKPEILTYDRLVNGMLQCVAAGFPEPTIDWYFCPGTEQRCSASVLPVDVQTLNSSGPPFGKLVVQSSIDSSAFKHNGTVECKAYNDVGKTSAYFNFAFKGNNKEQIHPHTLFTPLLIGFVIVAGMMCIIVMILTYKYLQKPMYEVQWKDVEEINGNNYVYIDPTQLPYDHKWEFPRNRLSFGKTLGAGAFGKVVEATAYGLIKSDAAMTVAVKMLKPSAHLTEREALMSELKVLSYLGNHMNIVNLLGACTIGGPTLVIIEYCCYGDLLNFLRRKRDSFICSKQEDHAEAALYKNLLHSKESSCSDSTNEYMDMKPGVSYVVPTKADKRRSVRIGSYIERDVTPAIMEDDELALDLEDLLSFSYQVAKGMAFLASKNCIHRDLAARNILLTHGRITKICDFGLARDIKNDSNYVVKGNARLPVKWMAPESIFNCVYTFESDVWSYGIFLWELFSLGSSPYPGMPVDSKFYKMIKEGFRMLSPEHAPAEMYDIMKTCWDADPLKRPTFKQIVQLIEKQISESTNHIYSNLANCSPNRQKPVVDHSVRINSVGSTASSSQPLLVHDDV
Chain of Proto-oncogene tyrosine-protein kinase receptor Ret (P07949 29-1114 Y791F limits assumed): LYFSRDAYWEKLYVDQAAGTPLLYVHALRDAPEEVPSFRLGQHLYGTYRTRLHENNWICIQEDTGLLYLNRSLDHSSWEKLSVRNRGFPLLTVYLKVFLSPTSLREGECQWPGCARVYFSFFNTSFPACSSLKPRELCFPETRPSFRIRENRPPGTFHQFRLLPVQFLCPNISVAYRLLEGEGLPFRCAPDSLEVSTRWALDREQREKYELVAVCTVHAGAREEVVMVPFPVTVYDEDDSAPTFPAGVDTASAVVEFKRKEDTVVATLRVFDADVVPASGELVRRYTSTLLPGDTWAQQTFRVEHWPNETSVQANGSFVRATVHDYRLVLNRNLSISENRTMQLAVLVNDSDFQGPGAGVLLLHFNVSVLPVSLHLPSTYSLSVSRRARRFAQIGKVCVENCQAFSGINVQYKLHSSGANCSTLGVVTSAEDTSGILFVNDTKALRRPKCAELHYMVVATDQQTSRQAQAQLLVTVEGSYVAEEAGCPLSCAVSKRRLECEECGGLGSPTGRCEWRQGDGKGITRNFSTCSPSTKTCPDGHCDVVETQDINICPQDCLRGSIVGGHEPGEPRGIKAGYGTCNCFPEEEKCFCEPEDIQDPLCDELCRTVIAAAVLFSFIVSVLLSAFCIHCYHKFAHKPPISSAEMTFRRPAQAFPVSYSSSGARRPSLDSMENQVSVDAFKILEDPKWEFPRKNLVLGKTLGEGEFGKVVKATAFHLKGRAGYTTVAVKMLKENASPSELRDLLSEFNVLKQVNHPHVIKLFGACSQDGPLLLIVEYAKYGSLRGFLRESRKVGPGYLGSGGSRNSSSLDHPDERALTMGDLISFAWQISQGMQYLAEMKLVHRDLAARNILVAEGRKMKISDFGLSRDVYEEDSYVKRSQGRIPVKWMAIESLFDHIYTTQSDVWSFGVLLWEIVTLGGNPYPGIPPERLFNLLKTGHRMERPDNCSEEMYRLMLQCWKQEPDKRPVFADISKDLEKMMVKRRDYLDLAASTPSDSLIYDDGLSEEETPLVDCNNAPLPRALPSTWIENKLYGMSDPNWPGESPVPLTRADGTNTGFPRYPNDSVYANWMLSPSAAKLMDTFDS
Chain of Cytochrome P450 2C9 (P11712 whole entry): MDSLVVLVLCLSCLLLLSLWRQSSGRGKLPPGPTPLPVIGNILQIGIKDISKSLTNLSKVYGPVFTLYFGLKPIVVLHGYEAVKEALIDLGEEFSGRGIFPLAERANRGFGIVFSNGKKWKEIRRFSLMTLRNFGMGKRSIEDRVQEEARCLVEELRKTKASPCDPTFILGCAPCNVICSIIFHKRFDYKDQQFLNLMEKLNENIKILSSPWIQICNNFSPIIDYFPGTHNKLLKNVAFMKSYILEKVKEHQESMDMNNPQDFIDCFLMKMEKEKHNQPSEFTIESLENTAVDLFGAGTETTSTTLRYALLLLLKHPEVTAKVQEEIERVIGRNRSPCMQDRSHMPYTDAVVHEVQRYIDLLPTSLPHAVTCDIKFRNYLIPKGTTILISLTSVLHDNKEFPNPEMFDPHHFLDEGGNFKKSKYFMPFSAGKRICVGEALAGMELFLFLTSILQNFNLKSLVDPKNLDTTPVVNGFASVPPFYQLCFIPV

CC(C)(C)c1cc(NC(=O)Nc2ccc(C#Cc3ccc(OCCCN4CCOCC4)cc3)cc2)no1
CL/F [1]: 6.67 mL/min/kg
Cmax [2]: 1820 ng/mL
AUC(0-t) at 24 h [3]: 1740 ng·h/mL
half-life [4]: 1.17 h
clearance [5]: 18.9 mL/min/kg
AUC(0-t) at 24 h [6]: 4380 ng·h/mL
Cmax [7]: 633 ng/mL
AUC(0-t) at 24 h [8]: 1290 ng·h/mL
clearance [9]: 11.3 mL/min/kg
Vd [10]: 5.08 L/kg
Cmax [11]: 4720 ng/mL
AUClast [12]: 10100 ng·h/mL
half-life [13]: 13.1 h
Cmax [14]: 1410 ng/mL
IC50 (BaF3 [15]): 0.302 µM
IC50 (BaF3 [16]): 0.154 µM
inhibition [17]: Dose-dependent-effect
inhibition [18]: Dose-dependent-effect
inhibition [19]: Dose-dependent-effect
inhibition [20]: inactive
IC50 [21]: 0.119 µM
IC50 [22]: 0.283 µM
IC50 (Cytochrome P450 2C9): > 33.3 µM
Activity [23]: 85.4%
Activity [24]: 100%
Tmax at 24 h [25]: 1 h
Tmax [26]: 1 h
Tmax [27]: 3 h
Tmax [28]: 6 h
Cmax [29]: 199 ng/mL
Cmax at 24 h [30]: 91.9 ng/mL
AUC(0-t) at 24 h [31]: 4700 ng·h/mL
IC50 (K562): > 10 µM
IC50 (NCI-H226): > 10 µM
IC50 (PC-3): 7 µM
IC50 (SK-OV-3): > 10 µM
IC50 (COLO 205): > 10 µM
IC50 (HCT-116): 8.5 µM
IC50 (CAKI-1): > 10 µM
IC50 (786-0): 3.4 µM
IC50 (BaF3 [32]): 0.0058 µM
